Target: T1, LINE1 reverse transcriptase (Homo sapiens, UniProt O00370)
T1 construct: expressed in transfected cells; host or cells: HeLa Tet-On 3G (Takara, cat no 631183)
Assay: Stable artificial-intron Cis LINE1 reporter assay (HeLa Tet-On 3G, Firefly luciferase)
Format: cell-based
Details: HeLa L1 artificial-intron reporter cells, doxycycline 500 ng/mL, 72 h, class symbols
Procedure: Exemplary compounds, were tested for the ability to inhibit LINE1 reverse transcriptase using a stable artificial-intron Cis LINE1 reporter assay. Assay procedures and results are described below.
A stable HeLa Tet-On 3G (Takara, cat no 631183) cell line expressing a bi-directional inducible LINE1 construct was generated as described in Xie, Y. et al. “Cell division promotes efficient retrotransposition in a stable L1 reporter cell line,” Mobile DNA (2013) 4:10. Single cell clones were screened for high Luciferase expression and the highest expression Firefly expressing clone was chosen for compound testing.
Test compounds were serially diluted in DMSO and spotted in 96-well plates. Subsequently, the HeLa Li artificial-intron reporter cells were plated into the compound-containing wells (8,000 cells/well), and the cells were induced for reporter expression with doxycycline (Sigma-Aldrich cat #D9891) at a final concentration of 500 ng/mL. Luminescence was measured 72 h after plating using the Dual-Glo Luciferase Assay System (Promega cat #E2940) following the manufacturer's instructions. The Firefly Luciferase activity was used to report LINE1 activity.

T1 sequence (O00370 whole entry, looked up): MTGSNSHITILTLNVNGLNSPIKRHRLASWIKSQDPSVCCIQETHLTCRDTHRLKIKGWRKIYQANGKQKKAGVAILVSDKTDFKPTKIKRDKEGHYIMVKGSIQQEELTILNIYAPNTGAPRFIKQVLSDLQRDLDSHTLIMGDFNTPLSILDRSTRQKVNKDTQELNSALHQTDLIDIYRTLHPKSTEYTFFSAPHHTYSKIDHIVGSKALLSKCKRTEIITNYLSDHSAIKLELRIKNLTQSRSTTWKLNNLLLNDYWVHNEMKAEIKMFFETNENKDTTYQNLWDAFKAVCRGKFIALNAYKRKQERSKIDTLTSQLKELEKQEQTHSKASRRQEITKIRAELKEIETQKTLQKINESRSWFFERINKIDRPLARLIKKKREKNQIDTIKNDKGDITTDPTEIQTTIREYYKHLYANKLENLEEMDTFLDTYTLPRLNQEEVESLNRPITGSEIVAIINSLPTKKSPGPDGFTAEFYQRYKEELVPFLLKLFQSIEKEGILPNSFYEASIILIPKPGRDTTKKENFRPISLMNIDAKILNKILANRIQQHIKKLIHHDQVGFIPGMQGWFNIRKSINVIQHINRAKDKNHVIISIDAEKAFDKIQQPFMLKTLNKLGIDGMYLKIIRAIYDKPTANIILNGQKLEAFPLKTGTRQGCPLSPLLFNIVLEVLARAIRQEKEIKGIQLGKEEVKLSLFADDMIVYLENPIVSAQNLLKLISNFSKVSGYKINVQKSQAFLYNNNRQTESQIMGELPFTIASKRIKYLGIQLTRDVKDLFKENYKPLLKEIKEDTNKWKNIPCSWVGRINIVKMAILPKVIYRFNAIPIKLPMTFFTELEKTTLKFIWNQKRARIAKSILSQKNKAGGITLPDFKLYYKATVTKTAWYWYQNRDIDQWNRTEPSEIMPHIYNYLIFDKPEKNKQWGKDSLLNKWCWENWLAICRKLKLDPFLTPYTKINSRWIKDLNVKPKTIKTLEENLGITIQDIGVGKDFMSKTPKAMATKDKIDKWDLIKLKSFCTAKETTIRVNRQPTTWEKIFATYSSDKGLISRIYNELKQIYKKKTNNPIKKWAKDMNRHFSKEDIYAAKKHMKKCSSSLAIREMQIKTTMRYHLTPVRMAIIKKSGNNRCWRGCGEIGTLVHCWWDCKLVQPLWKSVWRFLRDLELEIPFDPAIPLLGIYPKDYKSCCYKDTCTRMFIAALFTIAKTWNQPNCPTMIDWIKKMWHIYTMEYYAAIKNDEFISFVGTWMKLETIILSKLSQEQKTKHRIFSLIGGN

`Cc1cn([C@@H]2O[C@@](CO)(N=[N+]=[N-])[C@@H](O)[C@@H]2F)c(=O)[nH]c1=O` [Compound 178, 1-((2R,3S,4R,5R)-5-azido-3-fluoro-4-hydroxy-5-(hydroxymethyl)tetrahydrofuran-2-yl)-5-methylpyrimidine-2,4(1H,3H)-dione] and `[N-]=[N+]=N[C@]1(CO)O[C@@H](n2ccc(N)nc2=O)[C@@H](F)[C@@H]1O` [Compound 50, 4-amino-1-((2R,3S,4R,5R)-5-azido-3-fluoro-4-hydroxy-5-(hydroxymethyl)tetrahydrofuran-2-yl)pyrimidin-2(1H)-one] cannot be ordered by IC50: 50 to 100 nM for the first, ≤ 50 nM for the second.

First: CC[C@]1(CO)O[C@@H](n2cnc3c(=O)[nH]c(N)nc32)[C@@H](F)[C@@H]1O [Compound 68, 2-amino-9-((2R,3S,4R,5R)-5-ethyl-3-fluoro-4-hydroxy-5-(hydroxymethyl)tetrahydrofuran-2-yl)-1,9-dihydro-6H-purin-6-one]
Second: Nc1nc(=O)n([C@@H]2O[C@@](CO)(CBr)[C@@H](O)[C@@H]2F)cc1F [Compound 86, 4-amino-1-[(2R,3S,4R,5R)-5-(bromomethyl)-3-fluoro-4-hydroxy-5-(hydroxymethyl)oxolan-2-yl]-5-fluoropyrimidin-2-one]
The IC50 of the first is higher: 100 to 250 nM for the first, ≤ 50 nM for the second.

First: Nc1nc(=O)n([C@@H]2O[C@@](CO)(CCl)[C@@H](O)[C@@H]2O)cc1F [Compound 73, 4-amino-1-((2R,3S,4S,5R)-5-(chloromethyl)-3,4-dihydroxy-5-(hydroxymethyl)tetrahydrofuran-2-yl)-5-fluoropyrimidin-2(1H)-one]
Second: Nc1nc(=O)n([C@@H]2O[C@](/C=C\Cl)(CO)[C@@H](O)[C@@H]2F)cc1F [Compound 132, 4-amino-1-[(2R,3S,4R,5R)-5-(2-chloroethenyl)-3-fluoro-4-hydroxy-5(Z)-(hydroxymethyl)oxolan-2-yl]-5-fluoropyrimidin-2-one]
The IC50 of the first is lower: ≤ 50 nM for the first, > 1000 nM for the second.

`C=C=C[C@]1(CO)O[C@@H](n2cnc3c(N)nc(F)nc32)C[C@@H]1O` [Compound 164, (2R,3S,5R)-5-(6-amino-2-fluoropurin-9-yl)-2-(hydroxymethyl)-2-(propa-1,2-dien-1-yl)oxolan-3-ol] and `Nc1nc(=O)n([C@H]2C[C@H](O)[C@](CO)(C(F)(F)F)O2)cc1F` [Compound 66, 4-amino-5-fluoro-1-((2R,4S,5R)-4-hydroxy-5-(hydroxymethyl)-5-(trifluoromethyl)tetrahydrofuran-2-yl)pyrimidin-2(1H)-one] fall in the same range of IC50: 250 to 1000 nM for the first, 250 to 1000 nM for the second.

First: Nc1nc(=O)n([C@@H]2O[C@@](CO)(C3CC3)[C@@H](O)[C@@H]2F)cc1F [Compound 122, 4-amino-1-[(2R,3S,4R,5R)-5-cyclopropyl-3-fluoro-4-hydroxy-5-(hydroxymethyl)oxolan-2-yl]-5-fluoropyrimidin-2-one]
Second: Nc1nc(=O)n([C@@H]2O[C@](/C=C/Cl)(CO)[C@@H](O)[C@@H]2F)cc1F [Compound 131, 4-amino-1-[(2R,3S,4R,5R)-5(E)-(2-chloroethenyl)-3-fluoro-4-hydroxy-5-(hydroxymethyl)oxolan-2-yl]-5-fluoropyrimidin-2-one]
The IC50 of the first is higher: 250 to 1000 nM for the first, 100 to 250 nM for the second. The second is the more potent here.

First: C#C[C@@H]1[C@H](n2ccc(N)nc2=O)O[C@](C)(CO)[C@H]1O [Compound 20, 4-amino-1-((2R,3S,4S,5R)-3-ethynyl-4-hydroxy-5-(hydroxymethyl)-5-methyltetrahydrofuran-2-yl)pyrimidin-2(1H)-one]
Second: C[C@]1(CO)O[C@@H](n2ccc(N)nc2=O)C[C@@H]1O [Compound 106, 4-amino-1-((2R,4S,5R)-4-hydroxy-5-(hydroxymethyl)-5-methyltetrahydrofuran-2-yl)pyrimidin-2(1H)-one]
The IC50 of the first is higher: > 1000 nM for the first, ≤ 50 nM for the second.

`[N-]=[N+]=N[C@]1(CO)O[C@@H](n2ccc(N)nc2=O)C[C@@H]1O` [Compound 49, 4-amino-1-((2R,4S,5R)-5-azido-4-hydroxy-5-(hydroxymethyl)tetrahydrofuran-2-yl)pyrimidin-2(1H)-one] and `Nc1ccn([C@@H]2O[C@@](CO)(CF)[C@@H](O)[C@@H]2F)c(=O)n1` [Compound 113, 4-amino-1-((2R,3S,4R,5R)-3-fluoro-5-(fluoromethyl)-4-hydroxy-5-(hydroxymethyl)-tetrahydrofuran-2-yl)pyrimidin-2(1H)-one] fall in the same range of IC50: 50 to 100 nM for the first, 50 to 100 nM for the second.

`C#C[C@]1(CO)O[C@@H](n2cc(C)c(=O)[nH]c2=O)C[C@@H]1O` [Compound 38, 1-((2R,4S,5R)-5-ethynyl-4-hydroxy-5-(hydroxymethyl)tetrahydrofuran-2-yl)-5-methylpyrimidine-2,4(1H,3H)-dione] and `Cc1cn([C@H]2C[C@H](O)[C@](CO)(CCl)O2)c(=O)nc1N` [Compound 11, 4-amino-1-((2R,4S,5R)-5-(chloromethyl)-4-hydroxy-5-(hydroxymethyl)tetrahydrofuran-2-yl)-5-methylpyrimidin-2(1H)-one] cannot be ordered by IC50: > 1000 nM for the first, > 1000 nM for the second.

First: Nc1cnn([C@H]2C[C@H](O)[C@](CO)(CCl)O2)c(=O)n1 [Compound 18, 5-amino-2-((2R,4S,5R)-5-(chloromethyl)-4-hydroxy-5-(hydroxymethyl)tetrahydrofuran-2-yl)-1,2,4-triazin-3(2H)-one]
Second: C#C[C@]1(CO)O[C@@H](c2ccc3c(N)ncnn23)C[C@@H]1O [Compound 37, (2R,3S,5R)-5-(4-aminopyrrolo[2,1-f][1,2,4]triazin-7-yl)-2-ethynyl-2-(hydroxymethyl) tetrahydrofuran-3-ol]
The IC50 of the first is higher: > 1000 nM for the first, ≤ 50 nM for the second.

`C=C[C@]1(COC(=O)C(C)C)O[C@@H](n2ccc(N)nc2=O)C[C@@H]1OC(=O)C(C)C` [Compound 53, [(2R,3S,5R)-5-(4-amino-2-oxopyrimidin-1-yl)-2-ethenyl-3-[(2-methylpropanoyl)oxy]oxolan-2-yl] methyl 2-methylpropanoate] and `CC(C)C(=O)OC[C@@]1(CCl)O[C@@H](n2ccc(N)nc2=O)[C@H](F)[C@@H]1OC(=O)C(C)C` [Compound 24, (2R,3R,4R,5R)-5-(4-amino-2-oxopyrimidin-1(2H)-yl)-2-(chloromethyl)-4-fluoro-2-((isobutyryloxy)methyl) tetrahydrofuran-3-yl isobutyrate] fall in the same range of IC50: 250 to 1000 nM for the first, 250 to 1000 nM for the second.

Same assay, conditions: HeLa L1 artificial-intron reporter cells, doxycycline 500 ng/mL, 72 h, numeric bounds

`O=c1[nH]c(=O)n([C@@H]2O[C@@](CO)(CCl)[C@@H](O)[C@@H]2F)cc1F` [Compound 163, 1-[(2R,3S,4R,5R)-5-(chloromethyl)-3-fluoro-4-hydroxy-5-(hydroxymethyl)oxolan-2-yl]-5-fluoro-3H-pyrimidine-2,4-dione] and `NC(=O)[C@]1(CO)O[C@@H](n2cc(F)c(N)nc2=O)[C@@H](F)[C@@H]1O` [Compound 138, (2R,3R,4S,5R)-5-(4-amino-5-fluoro-2-oxopyrimidin-1-yl)-4-fluoro-3-hydroxy-2-(hydroxymethyl)oxolane-2-carboxamide] cannot be ordered by IC50: > 30000 nM for the first, > 30000 nM for the second.

`N#C[C@]1(CO)O[C@@H](n2cc(F)c(N)nc2=O)[C@@H](F)[C@@H]1O` [Compound 166] and `CO[C@H]1C[C@H](n2ccc(N)nc2=O)O[C@@]1(CO)CCl` [Compound 54, 4-amino-1-[(2R,4S,5R)-5-(chloromethyl)-5-(hydroxymethyl)-4-methoxyoxolan-2-yl]-3,4-dihydropyrimidin-2-one] cannot be ordered by IC50: > 30000 nM for the first, > 30000 nM for the second.

`Nc1ncnn2c([C@H]3C[C@H](O)[C@](CO)(CF)O3)ccc12` [Compound 79, (2R,3S,5R)-5-(4-aminopyrrolo[2,1-f] [1,2,4]triazin-7-yl)-2-(fluoromethyl)-2-(hydroxymethyl)tetrahydrofuran-3-ol] was tested, and the IC50 was > 30000 nM.

— patent US20230295212A1 (ROME Therapeutics, Inc., priority 2022, published 2023)
